Experimental findings from US20250186420A1, “POLYMETHINIUM SALTS AS INHIBITORS OF DIHYDROOROTATE DEHYDROGENASE” (UNIVERZITA KARLOVA, priority 2022, published 2025) are described below.

Holding throughout (type): cell-based
The subject of assay [1] is PC-3. The experiment in a line: xCELLigence real-time impedance cell migration. The settings on record: for Normalized cell index (cell migration): cell index normalized to 1.0 at addition of test agent, concentration based on IC50 for the cell line. As to the method: (§1) The xCELLigence system based on real-time cell impedance analysis (RTCA) was used to determine invasiveness and migration rates. The xCELLigence system consists of four main components: an RTCA DP station, an RTCA computer with integrated software, and CIM 16 disposable plates. First, the optimal cell seeding concentration for the proliferation and invasiveness assay was determined. After seeding the total number of cells in 200 μl medium into each well in E-plate 16, cell adherence and proliferation were monitored every 15 minutes. For the invasiveness assay, the optimal response was found in a well containing 20,000 cells. After coating the upper wells with matrigel and adding FBS as a chemoattractant, cells were seeded in 100 μl medium in each well of a CIM-plate 16. Adherence and growth of cells through the matrigel was monitored every 15 minutes. The duration of all experiments was 150 hours. The relative invasiveness rate was defined as the cellular index for matrigel-coated wells (cells must spread/pass through the matrigel to generate a signal) at a given time point. The impedance of electron flow due to adherent cells is given by a unitless parameter called the cell index (CI), where CI=(impedance at time point n-impedance in the absence of cells)/nominal impedance value). In order to compare individual cell lines/treatment, these cell indices were normalized to 1.0 at the time the test agents were added. Concentrations of compounds were chosen based on the IC50 inhibitory concentration for each cell line.

Assay [2] has as its system PNTA. Kind of assay: xCELLigence real-time impedance cell migration. The settings on record: for Normalized cell index (cell migration): cell index normalized to 1.0 at addition of test agent, concentration based on IC50 for the cell line. As to the method:
as §1

Assay [3] has as its system U-2 OS. Kind of assay: xCELLigence real-time impedance cell migration. The settings on record: for Normalized cell index (cell migration): cell index normalized to 1.0 at addition of test agent, concentration based on IC50 for the cell line. As to the method: as §1
In assay [4] the test system is PC-3. Kind of assay: xCELLigence real-time impedance cell invasiveness (matrigel). The note with it: for Normalized cell index (cell invasiveness): matrigel-coated wells, normalized to 1.0 at addition of test agent, concentration based on IC50 for the cell line. As to the method:
as §1

Assay [5] relates to PNTA. Described as above. The settings on record: for Normalized cell index (cell invasiveness): matrigel-coated wells, normalized to 1.0 at addition of test agent, concentration based on IC50 for the cell line. As to the method:
as §1

The test system of assay [6] is U-2 OS. The assay is described as above. The note with it: for Normalized cell index (cell invasiveness): matrigel-coated wells, normalized to 1.0 at addition of test agent, concentration based on IC50 for the cell line. As to the method: as §1
The subject of assay [7] is DHODH-dependent respiration in PC-3. The experiment in a line: Inhibition of DHODH-dependent respiration (Oxygraph-2k). The settings on record: PC-3 tumor line; test substance 1 to 4 nM; permeabilized cells. As to the method: (§2) DHODH-dependent respiration was performed as follows. Cells were trypsinized, washed with PBS, resuspended in an amount of 2×10^6 cells per ml Mir05 medium (0.5 mM EGTA, 3 mM MgCl2, 60 mM K-lactobionate, 20 mM taurine, 10 mM KH2PO4, 110 mM sucrose, 1 g/L bovine serum albumin, 20 mM Hepes, pH 7.1 at 30° C.) and transferred to the chamber of the Oxygraph-2k instrument (Oroboros). Respiration was measured at 37° C. Cells were permeabilized with 5 μg of digitonin per 10^6 cells, and complex I inhibitor (0.3 μM rotenone) and test substance were added at concentrations from 1 to 4 nM before adding the substrate. DHODH-mediated respiration was assessed by subtracting the residual rate of respiration remaining after the addition of 30 μM leflunomide from the rate of respiration in the presence of 1 mM dihydroorotate (DHO), 3 mM ADP, and 10 μM cytochrome c.

Assay [8] deals with DHODH-dependent respiration in PNT1A cell line. The assay is described as above. The settings on record: model of normal prostate tissue, test substance 1 to 4 nM, permeabilized cells. As to the method:
as §2

Assay [9] deals with DHODH-dependent respiration in U-2 OS. Described as above. The settings on record: U-2 OS tumor line; test substance 1 to 4 nM; permeabilized cells. As to the method:
as §2

As to `CCCN1/C(=C/C=C(/C=C/c2sc3ccccc3[n+]2CCC)c2ccccc2)Sc2ccccc21.[I-]` [Substance 1], the “Control-substance (difference of normalized cell index, cell migration)” value in the assay with PC-3 [1] came to 30.0; in the assay on PNTA [2], 15.2; in the assay with U-2 OS [3] it was 20.8. In addition, the “Normalized cell index (cell migration)” value stood at 8.8 with PC-3 [1], 3.4 with PNTA [2] and 3.5 in the assay on U-2 OS [3]. Besides, the “Control-substance (difference of normalized cell index, cell invasiveness)” value came to 21.4 with PC-3 [4], 16.9 in the assay on PNTA [5] and 24.3 in the assay with U-2 OS [6]. For the same compound, the “Normalized cell index (cell invasiveness)” value was 1.4 with PC-3 [4], 2.8 in the assay on PNTA [5] and 1.3 in the assay on U-2 OS [6]. In addition, the DHODH-dependent respiration entry in assay [7] was “caused a decrease in DHODH-dependent respiration”; in [8], “unaffected”; in [9], “caused a decrease in DHODH-dependent respiration”.

For `CCCN1/C(=C/C=C(/C=C/C2=[N+](CCC)c3ccccc3C2(C)C)c2ccncc2)C(C)(C)c2ccccc21.[I-]` [Substance 2], the “Control-substance (difference of normalized cell index, cell migration)” value in the assay on PC-3 [1] stood at 19.3; with PNTA [2] it was 11.6; in the assay on U-2 OS [3] it was 20.4. In addition, the “Normalized cell index (cell migration)” value with PC-3 [1] is 19.5; in the assay on PNTA [2], 7.0; in the assay on U-2 OS [3], 3.9. In addition, the “Control-substance (difference of normalized cell index, cell invasiveness)” value in the assay with PC-3 [4] amounted to 17.4; with PNTA [5], 16.5; with U-2 OS [6], 23.7. Also, the “Normalized cell index (cell invasiveness)” value in the assay on PC-3 [4] stood at 5.4; with PNTA [5], 3.2; in the assay on U-2 OS [6] it was 1.9. Besides, the DHODH-dependent respiration entry in assay [7] is recorded as “caused a decrease in DHODH-dependent respiration”; in assay [8], “unaffected”; in [9] it was “caused a decrease in DHODH-dependent respiration”.
